{
  "source": "paper PMC11410943",
  "about": "(Nature Communications, 2024)",
  "key": {"hERG": {"molecular_target": "hERG (Homo sapiens, UniProt Q12809)", "sequence (Q12809 whole entry)": "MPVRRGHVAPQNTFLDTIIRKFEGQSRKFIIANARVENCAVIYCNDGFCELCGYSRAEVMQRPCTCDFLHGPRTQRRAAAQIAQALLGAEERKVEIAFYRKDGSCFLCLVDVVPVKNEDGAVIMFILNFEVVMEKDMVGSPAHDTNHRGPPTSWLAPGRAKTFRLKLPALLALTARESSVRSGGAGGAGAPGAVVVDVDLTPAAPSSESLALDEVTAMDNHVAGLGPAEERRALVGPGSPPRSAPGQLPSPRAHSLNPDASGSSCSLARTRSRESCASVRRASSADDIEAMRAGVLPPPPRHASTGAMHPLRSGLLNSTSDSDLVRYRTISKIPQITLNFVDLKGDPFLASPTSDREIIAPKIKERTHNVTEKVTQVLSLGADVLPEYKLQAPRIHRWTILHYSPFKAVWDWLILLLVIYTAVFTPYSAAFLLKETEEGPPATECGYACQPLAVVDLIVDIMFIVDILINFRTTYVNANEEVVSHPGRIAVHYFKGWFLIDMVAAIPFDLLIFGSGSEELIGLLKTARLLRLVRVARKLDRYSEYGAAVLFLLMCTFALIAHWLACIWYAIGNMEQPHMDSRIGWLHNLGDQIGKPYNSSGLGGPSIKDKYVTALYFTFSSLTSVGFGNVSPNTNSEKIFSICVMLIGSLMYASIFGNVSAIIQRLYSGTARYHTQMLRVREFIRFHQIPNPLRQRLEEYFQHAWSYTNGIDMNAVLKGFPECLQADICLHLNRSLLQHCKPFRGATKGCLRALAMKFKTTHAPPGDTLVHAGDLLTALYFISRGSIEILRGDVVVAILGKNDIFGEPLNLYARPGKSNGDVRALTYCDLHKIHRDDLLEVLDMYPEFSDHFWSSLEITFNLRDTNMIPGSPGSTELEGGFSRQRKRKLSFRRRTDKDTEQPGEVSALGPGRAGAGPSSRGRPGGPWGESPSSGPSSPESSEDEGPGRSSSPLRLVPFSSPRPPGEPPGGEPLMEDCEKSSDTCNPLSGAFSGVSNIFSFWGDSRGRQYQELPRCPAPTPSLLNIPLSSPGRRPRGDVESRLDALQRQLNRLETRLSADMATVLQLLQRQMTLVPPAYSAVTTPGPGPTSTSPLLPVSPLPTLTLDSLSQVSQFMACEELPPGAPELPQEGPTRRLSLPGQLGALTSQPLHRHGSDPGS", "assay": "hERG manual patch-clamp", "assay_type": "cell-based"}, "[1]": {"assay": "Hepatocyte stability / intrinsic clearance", "assay_type": "in vitro ADME, human"}, "[2]": {"assay": "Hepatocyte stability / intrinsic clearance", "assay_type": "in vitro ADME, monkey"}, "P-glycoprotein (P-gp)": {"molecular_target": "P-glycoprotein (P-gp) (Homo sapiens, UniProt P08183)", "sequence (P08183 whole entry)": "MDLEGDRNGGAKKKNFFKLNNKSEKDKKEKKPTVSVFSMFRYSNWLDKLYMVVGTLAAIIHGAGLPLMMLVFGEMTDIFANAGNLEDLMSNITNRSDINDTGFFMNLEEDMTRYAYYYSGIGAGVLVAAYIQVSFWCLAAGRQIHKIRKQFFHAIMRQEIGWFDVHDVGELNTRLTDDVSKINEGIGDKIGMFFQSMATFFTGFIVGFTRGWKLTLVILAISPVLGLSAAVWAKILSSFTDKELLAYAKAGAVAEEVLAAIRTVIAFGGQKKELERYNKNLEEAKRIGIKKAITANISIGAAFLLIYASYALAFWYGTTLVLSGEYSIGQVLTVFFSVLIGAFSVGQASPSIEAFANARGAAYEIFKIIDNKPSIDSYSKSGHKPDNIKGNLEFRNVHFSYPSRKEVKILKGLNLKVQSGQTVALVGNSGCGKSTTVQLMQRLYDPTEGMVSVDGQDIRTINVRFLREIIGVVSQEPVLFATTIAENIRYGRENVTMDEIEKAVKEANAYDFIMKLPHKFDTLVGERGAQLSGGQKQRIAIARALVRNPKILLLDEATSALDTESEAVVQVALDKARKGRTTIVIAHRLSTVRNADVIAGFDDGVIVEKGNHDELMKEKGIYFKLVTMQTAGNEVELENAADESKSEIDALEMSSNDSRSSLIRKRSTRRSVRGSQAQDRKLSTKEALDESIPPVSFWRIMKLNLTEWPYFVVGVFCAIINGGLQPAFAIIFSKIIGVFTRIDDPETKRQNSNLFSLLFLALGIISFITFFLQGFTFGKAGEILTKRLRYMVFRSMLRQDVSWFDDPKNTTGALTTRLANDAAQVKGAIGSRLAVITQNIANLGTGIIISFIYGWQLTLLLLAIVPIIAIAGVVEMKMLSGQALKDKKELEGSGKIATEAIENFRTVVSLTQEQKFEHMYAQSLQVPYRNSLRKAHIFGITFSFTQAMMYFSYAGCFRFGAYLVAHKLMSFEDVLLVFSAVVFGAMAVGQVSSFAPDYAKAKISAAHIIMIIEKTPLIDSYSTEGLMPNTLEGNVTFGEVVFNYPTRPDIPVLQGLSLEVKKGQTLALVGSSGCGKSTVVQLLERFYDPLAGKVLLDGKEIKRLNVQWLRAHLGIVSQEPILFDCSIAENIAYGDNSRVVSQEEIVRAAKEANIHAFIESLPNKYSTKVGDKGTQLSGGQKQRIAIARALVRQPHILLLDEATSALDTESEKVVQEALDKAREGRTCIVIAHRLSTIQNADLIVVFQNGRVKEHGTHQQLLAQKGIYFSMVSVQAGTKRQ", "assay": "P-gp substrate determination", "assay_type": "in vitro ADME"}, "[3]": {"tested_on": "AChE, MAO-B, Adrenergic α1 A, 5-HT1A", "assay": "Cerep-88 secondary pharmacology screen"}, "[4]": {"assay": "IVIVE of clearance in humans", "set-up": "species or system human"}, "E. coli": {"tested_on": "E. coli", "assay": "Killing kinetics assay", "assay_type": "cell-based", "details": "0.5X to 16X MIC, susceptible and MDR strains"}, "A. baumannii": {"tested_on": "A. baumannii", "assay_type": "cell-based"}, "P. aeruginosa [5]": {"tested_on": "P. aeruginosa", "assay": "Killing kinetics assay", "assay_type": "cell-based", "details": "0.5X to 16X MIC, susceptible and MDR strains"}, "K. pneumoniae": {"tested_on": "K. pneumoniae", "assay": "Neutropenic mouse", "assay_type": "in vivo", "details": "SC every 8 h, wild-type and MDR isolates"}, "Dog cardiovascular study": {"assay": "Dog cardiovascular study", "assay_type": "in vivo"}, "[6]": {"assay": "First-in-human SAD study, PK", "assay_type": "in vivo, healthy human volunteers", "details": "for half-life: both, human, plasma, iv"}, "[7]": {"assay": "First-in-human SAD study, safety and tolerability", "assay_type": "in vivo, healthy human volunteers", "details": "single IV infusion 120-1050 mg"}, "Proteus spp.": {"tested_on": "Proteus spp.", "assay": "MIC", "details": "IHMA/CARB-X MDR clinical isolates 2019, N=152"}, "Neisseria gonorrhoeae": {"tested_on": "Neisseria gonorrhoeae", "assay": "MIC", "details": "IHMA/CARB-X isolates 1997 to 2021, N=90"}, "Staphylococcus aureus": {"tested_on": "Staphylococcus aureus", "assay": "MIC"}, "Enterococcus faecalis": {"tested_on": "Enterococcus faecalis", "assay": "MIC", "details": "read-out: median MIC"}, "P. aeruginosa [8]": {"tested_on": "P. aeruginosa", "assay": "Neutropenic rat lung infection model", "details": "IV infusion, MDR isolates"}},
  "note": "Where two headings read alike, the source gives them in different places.",
  "data": [
    {"smiles": "Cn1c(=O)ccc2ccc(F)c(CCNC[C@H]3CN(c4cnc5c(n4)NC(=O)CO5)C(=O)O3)c21", "note": "[BWC0977, 6-[(5S)−5-[[[2-(7-Fluoro-1,2-dihydro-1-methyl-2-oxo-8-quinolinyl)ethyl]amino]methyl]−2-oxo-3-oxazolidinyl]−2H-pyrazino[2,3-b]−1,4-oxazin-3(4H)-one]", "values": [
      {"measurement": "IC50", "setting": "hERG", "result": 49.7, "unit": "µM"},
      {"measurement": "clearance predicted from CLint, % of liver blood flow (LBF)", "setting": "[1]", "result": "< 30", "unit": "%"},
      {"measurement": "clearance predicted from CLint, % of liver blood flow (LBF)", "setting": "[2]", "result": "< 30", "unit": "%"},
      {"measurement": "P-gp substrate status", "setting": "P-glycoprotein (P-gp)", "result": "substrate"},
      {"measurement": "result in Cerep-88 screen", "setting": "[3]", "result": "hits"},
      {"measurement": "predicted human plasma CLp", "setting": "[4]", "result": 5.5, "unit": "mL/min/kg"},
      {"measurement": "predicted % human LBF", "setting": "[4]; human LBF […]", "result": 28, "unit": "%"},
      {"measurement": "in vitro killing kinetics", "setting": "E. coli", "result": "significant bactericidal activity"},
      {"measurement": "in vitro killing kinetics", "setting": "A. baumannii", "result": "significant bactericidal activity"},
      {"measurement": "in vitro killing kinetics", "setting": "P. aeruginosa [5]", "result": "significant bactericidal activity"},
      {"measurement": "dose-ranging efficacy (bacterial burden)", "setting": "K. pneumoniae", "result": "excellent dose-response"},
      {"measurement": "increase in QTc", "setting": "Dog cardiovascular study; 1-hour infusion of 30 or 60 mg/kg, within 3−6 h", "result": "4 to 11", "unit": "ms"},
      {"measurement": "heart rate", "setting": "Dog cardiovascular study; 30 and 60 mg/kg", "result": "notable increase in heart rate"},
      {"measurement": "VD at steady state (Vss) across the dose levels", "setting": "[6]; 120-1050 mg", "result": "44.03 to 51.50", "unit": "L/h"},
      {"measurement": "dose proportionality of plasma Cmax and AUC", "setting": "[6]; 120-1050 mg", "result": "increased proportionally with dose"},
      {"measurement": "half-life", "setting": "[6]; 120 mg", "result": 3.3, "unit": "h"},
      {"measurement": "half-life", "setting": "[6]; 1050 mg", "result": 8.4, "unit": "h"},
      {"measurement": "tolerability", "setting": "[7]", "result": "generally well tolerated"},
      {"measurement": "MIC90", "setting": "Proteus spp.", "result": 0.5, "unit": "µg/mL"},
      {"measurement": "MIC90", "setting": "Neisseria gonorrhoeae", "result": "≤ 0.016", "unit": "µg/mL"},
      {"measurement": "MIC", "setting": "Staphylococcus aureus; Staphylococcus aureus, read-out: median MIC", "result": 0.01, "unit": "µg/mL"},
      {"measurement": "MIC90", "setting": "Staphylococcus aureus; global panel, N=560, including MRSA", "result": 0.03, "unit": "µg/mL"},
      {"measurement": "MIC", "setting": "Enterococcus faecalis", "result": 0.06, "unit": "µg/mL"},
      {"measurement": "dose-response efficacy", "setting": "P. aeruginosa [8]", "result": "excellent bactericidal dose-response"}
    ]}
  ]
}
